Data reported in patent US7169890B2, “Process for the production of ramoplanin-like amide derivatives” (Vicuron Pharmaceuticals Inc., priority 2002, dated 2007).

How the values were obtained:
[1] = test system: methicillin-resistant Staphylococcus aureus SA 613; assay: Murine infection, methicillin-resistant Staphylococcus aureus SA 613; format: in vivo; conditions: mice, i.p. infection, s.c. treatment, survival to day 7
Method: Mice were infected intraperitoneally with ca 10^7 CFU/mouse of Staphylococcus aureus SA 613. Untreated animals died within 24 hours after infection. Groups of eight mice each were treated iv or s.c. with different dose levels of ramoplanin or each test compound, starting 10–20 minutes after challenge. Ramoplanin and vancomycin were used as reference drugs.

[2] = test system: Staphylococcus aureus Smith SA 819; assay: Murine septicaemia, Staphylococcus aureus Smith SA 819 systemic infection; format: in vivo; conditions: mice, i.p. infection, s.c. treatment, survival to day 7
Method: As an example, therapeutical effectiveness of some representative compounds of formula (Ia) in murine septicaemia caused by intraperitoneally administered Staphylococcus aureus Smith SA 819 was evaluated in comparison with ramoplanin. Vancomycin was chosen as reference drug for the evaluation of in vivo antiinfective activity.
Mice were infected intraperitoneally with Staphylococcus aureus Smith SA 819. Untreated animals died within 24 hours after infection. Groups of eight mice each were treated s.c. with different dose levels of ramoplanin or of each test compound, starting 10–20 min after challenge. Reference drugs was s.c. injected vancomycin.

[3] = test system: 560 Entero. faecalis VanA; assay: MIC, broth microdilution NCCLS (isolated compounds or reaction solutions); format: cell-based, Enterococcus faecalis; conditions: for MIC: 560 Entero. faecalis VanA, isolated compounds
Method: (§1) The antimicrobial activity in vitro of the compounds obtained according to the process of this invention was evaluated against a panel of clinical isolates of methicillin-sensitive, methicillin-resistant and vancomycin-intermedie Staphylococcus aureus, Van-S and Van-A Enterococcus faecium and faecalis, Streptococcus pyogenes, Escherichiae coli and Candida albicans.
(§2) MICs were performed using the broth microdilution methodology following the NCCLS procedure (NCCLS Document M7-A4 Vol.17 No.2 January 1997) in presence of 0.02% albumine bovine serum with inocula of approximately 5×10^5 cfu/mL. The media employed included cation-adjusted Mueller-Hinton (MH) broth (Difco Laboratories, Detroit, Mich., USA) supplemented or not with 30% (v/v) bovine serum. Tests were read after 24 h incubation at 37° C.
(§3) A further set of experiments for measuring the antimicrobial activity in vitro of a series of compounds of formula (Ia) in comparison with the known compound 1 was carried out directly on the solutions deriving from the reaction of the starting acid of formula (IV) with the deacyl ramoplanin of formula (III) according to the method A described in the Examples.
(§4) The reaction solutions (resulting from the addition of 1M hydrochloric acid as described in Method A) were diluted at 6000 mcg/ml by adding 0.1% peptone Difco Laboratories, (Detroit, Mich., USA) plus 0.9% NaCl (PBS). The resulting solutions were diluted with water at the desired concentration to perform the test that was then carried out in the same way described for the isolated compounds reported in Table 2.

[4] = test system: 145 Candida albicans SKF2270; assay: as above; format: cell-based; conditions: for MIC: 145 Candida albicans SKF2270, isolated compounds
Method: as §1, §2, §3, §4

blood cells [5] = assay: Haemolytic potential on blood cells (isolated compounds); format: cell-based, rats
Method: The ramoplanin-like amide derivatives were dissolved at 40.000 mcg/ml in dimethyl sulfoxide (DMSO) and then diluted 1:5 in 0.1% peptone Difco Laboratories, (Detroit, Mich., USA) plus 0.9% NaCl (PBS).
(§5) Whole blood sample was obtained from the dorsal aorta of rats and diluted 1:100 in PBS before the test.
Group 2—PBS as physiologic haemolysis control
Group 3—saponin (Sigma), solution at 3% in distilled water, as 100% haemolysis control.
(§6) The test groups were diluted 1:5 in blood cells and incubated in water bath at 37° C. for 45 minutes.
(§7) After the incubation time the samples were centrifuged at 2500–3000 g for 10 minutes, and 0.1 ml of each supernatant was diluted in 900 mcl of Drabkin's reagent (Sigma).
(§8) The optical density (OD) of the samples was measured at 540 nm versus a blank preparation of Drabkin's reagent plus 0.1 ml of PBS.
The test was performed in triplicate.
(§9) The percentage of haemolysis was calculate using the formula Δx/Δt×100=% of haemolysis
Δx=mean value of OD540 for each concentration tested (GROUP 1–2)
Δt=mean value of OD540 for 100% haemolysis control (GROUP 3).
(§10) The haemolysis was considered significant when exceeding at least 3 times the haemolytic value of blank control (GROUP 2).

[6] = test system: 569 Entero. faecium clin. isolate Van-A; assay: MIC, broth microdilution NCCLS (isolated compounds or reaction solutions); format: cell-based, Enterococcus faecium; conditions: for MIC: 569 Entero. faecium clin. isolate Van-A, isolated compounds
Method: as §1, §2, §3, §4

49 Strep. pyogenes C203 = assay: as above; format: cell-based, Streptococcus pyogenes; conditions: for MIC: 49 Strep. pyogenes C203, isolated compounds
Method: as §1, §2, §3, §4

819 Staph. aureus Smith = assay: as above; format: cell-based, Staphylococcus aureus; conditions: for MIC: 819 Staph. aureus Smith, isolated compounds
Method: as §1, §2, §3, §4

[7] = test system: 3798 Staph. aureus clin. isolate VISA; assay: as above; format: cell-based, Staphylococcus aureus; conditions: for MIC: 3798 Staph. aureus clin. isolate VISA, isolated compounds
Method: as §1, §2, §3, §4

[8] = test system: 3797 Staph. aureus clin. isolate VISA Met-R; assay: as above; format: cell-based, Staphylococcus aureus; conditions: for MIC: 3797 Staph. aureus clin. isolate VISA Met-R, isolated compounds
Method: as §1, §2, §3, §4

[9] = test system: 613 Staph. aureus clin. isolate Met-R; assay: as above; format: cell-based, Staphylococcus aureus; conditions: for MIC: 613 Staph. aureus clin. isolate Met-R, isolated compounds
Method: as §1, §2, §3, §4

47 E coli SKF12140 = assay: as above; format: cell-based, Escherichiae coli; conditions: for MIC: 47 E coli SKF12140, isolated compounds
Method: as §1, §2, §3, §4

[10] = test system: 559 Entero. faecalis (isogenic of L 560); assay: as above; format: cell-based, Enterococcus faecalis
Method: as §1, §2, §3, §4

blood cells [11] = assay: Haemolytic effect (reaction solutions); format: cell-based, rats
Method: as §5, §6, §7, §8, §9, §10
as §3, with “haemolytic effect” for “antimicrobial activity in vitro”
The reaction solutions (resulting from the addition of 1M hydrochloric acid as described in Method A) were diluted at 1200 mcg/ml by adding 0.1% peptone Difco Laboratories, (Detroit, Mich., USA) plus 0.9% NaCl (PBS).

[12] = test system: 568 Entero. faecium (isogenic of L569); assay: MIC, broth microdilution NCCLS (isolated compounds or reaction solutions); format: cell-based, Enterococcus faecium
Method: as §1, §2, §3, §4

[13] = reaction solutions, +30% bovine serum

Compound	MIC ([3]; +30% bovine serum) [µg/mL]	MIC [3] [µg/mL]	MIC [4] [µg/mL]	% lyis at 100 mcg/ml (blood cells [5]) [%]	% lysis at 200 mcg/ml (blood cells [5]) [%]	% lysis at 400 mcg/ml (blood cells [5]) [%]	MIC ([6]; +30% bovine serum) [µg/mL]	MIC [6] [µg/mL]	MIC (49 Strep. pyogenes C203) [µg/mL]	MIC (819 Staph. aureus Smith; +30% bovine serum) [µg/mL]	MIC (819 Staph. aureus Smith; MH broth) [µg/mL]	MIC ([7]; +30% bovine serum) [µg/mL]	MIC [7] [µg/mL]	MIC [8] [µg/mL]	MIC [9] [µg/mL]	MIC (47 E coli SKF12140) [µg/mL]	also measured
CN[C@H](CC(C)C)C(=O)N[C@H]1C(=O)N[C@@H](CC(N)=O)C(=O)N[C@H]2C(=O)N[C@H]3C(=O)N[C@H](C(=O)N[C@H](C(=O)O)c4cc(O)cc(O)c4-c4cc3ccc4O)[C@H](O)c3ccc(c(Cl)c3)Oc3cc2cc(c3O[C@@H]2O[C@H](CO)[C@@H](O)[C@H](O)[C@H]2O[C@H]2C[C@](C)(N)[C@H](O)[C@H](C)O2)Oc2ccc(cc2Cl)[C@H]1O [Vancomycin]	–	–	–	–	–	–	–	–	–	–	–	–	–	–	–	–	ED50 [1]: 8 mg/kg/dose; ED50 [2]: 0.64 mg/kg/dose
ramoplanin factor A1 [Compound 35]	0.5	<0.125	>128	58.99	80.44	92.82	1	<0.125	<0.125	0.5	<0.125	2	0.5	1	<0.125	>128	–
ramoplanin factor A2 [Compound 1]	2	0.06	>32	86.04	100	100	2	0.125	<0.03	4	0.125	16	1	2	0.25	>32	MIC 560 Entero. faecalis VanA +30% bovine serum [3, 13]: 2 µg/mL; MIC 560 Entero. faecalis VanA ([3]; reaction solutions, no serum): ≦0.125 mcg/ml; MIC ([10]; 559 Entero. faecalis (isogenic of L 560), isolated compounds): 0.06 µg/mL; MIC 559 Entero. faecalis (isogenic of L 560) ([10]; reaction solutions, no serum): ≦0.125 mcg/ml; % lysis at 300 mcg/ml (blood cells [11]; 300 mcg/ml): 74.39%; % lysis at 600 mcg/m (blood cells [11]; 600 mcg/m): 88.87%; MIC 145 Candida albicans SKF2270 ([4]; reaction solutions): >128 µg/mL; MIC 568 Entero. faecium (isogenic of L569) ([12]; reaction solutions, no serum): ≦0.125 mcg/ml; MIC 569 Entero. faecium clin. isolate Van-A +30% bovine serum [6, 13]: 2 µg/mL; MIC 569 Entero. faecium clin. isolate Van-A ([6]; reaction solutions, no serum): ≦0.125 mcg/ml; MIC 49 Strep. pyogenes C203 (49 Strep. pyogenes C203; reaction solutions, no serum): ≦0.125 mcg/ml; MIC 819 Staph. aureus Smith +30% bovine serum (819 Staph. aureus Smith; [13]): 2 µg/mL; MIC 819 Staph. aureus Smith (819 Staph. aureus Smith; reaction solutions, no serum): ≦0.125 mcg/ml; MIC 3798 Staph. aureus clin. isolate VISA +30% bovine serum [7, 13]: 8 µg/mL; MIC 3798 Staph. aureus clin. isolate VISA ([7]; reaction solutions, no serum): 1 µg/mL; MIC 3797 Staph. aureus clin. isolate VISA Met-R ([8]; reaction solutions, no serum): 2 µg/mL; MIC 613 Staph. aureus clin. isolate Met-R ([9]; reaction solutions, no serum): 0.25 µg/mL; MIC 47 E coli SKF12140 (47 E coli SKF12140; reaction solutions): >128 µg/mL
tetrahydroderivative of ramoplanin factor A1 [Compound 5]	2	0.06	>32	–	–	–	4	0.125	<0.03	4	0.25	–	2	4	0.5	>32	MIC ([12]; 568 Entero. faecium (isogenic of L569), isolated compounds): 0.25 µg/mL
